Laboratory results from patent US9493468B2, “Antifungal 5,6-dihydro-4H-pyrrolo[1,2-a][1,4]benzo-diazepines and 6H-pyrrolo[1,2-a][1,4]benzodiazepines substituted with heterocyclic derivatives” (Janssen Pharmaceutica NV, priority 2011, dated 2016).

What was measured:
Format in all cases: cell-based
Aspergillus fumigatus = test: Antifungal activity in vitro, resazurin growth inhibition: Aspergillus fumigatus (B42928)
Method in brief: (§1)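 Resazurin conversion to fluorescent resorufin (ex 550/em 590 nm) served as the growth readout. Compounds spanned 2- or 4-fold serial dilutions with 64 μM top in-test concentration; inoculum 10^3 cfu per well in MOPS-buffered RPMI-1640 (pH 7.0, 2% glucose). Incubation species-dependent, dermatophytes at 27° C. for ≥1 week.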

Rhizomucor miehei = test: Antifungal activity in vitro, resazurin growth inhibition: Rhizomucor miehei (IHEM13391)
Method in brief: as §1

Scedosporium prolificans = test: Antifungal activity in vitro, resazurin growth inhibition: Scedosporium prolificans (IHEM21157)
Method in brief: as §1

Trichophyton rubrum = test: Antifungal activity in vitro, resazurin growth inhibition: Trichophyton rubrum (B68183)
Method in brief: (§2)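 Fungi (10^3 cfu/well) grown in RPMI-1640 with L-glutamine, 2% glucose, MOPS pH 7.0, against 2- or 4-fold compound dilutions up to 64 μM. Dermatophytes incubated one week or more at 27° C. Growth inhibition read fluorimetrically (λex 550, λem 590 nm) after resazurin addition and further incubation.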

Sporothrix schenkii = test: Antifungal activity in vitro, resazurin growth inhibition: Sporothrix schenkii (B62482)
Method in brief: as §1

Rhizopus oryzae = test: Antifungal activity in vitro, resazurin growth inhibition: Rhizopus oryzae (IHEM5223)
Method in brief: as §1

Candida parapsilosis = test: Antifungal activity in vitro, resazurin growth inhibition: Candida parapsilosis (B66126)
Method in brief: as §1

Microsporum canis = test: Antifungal activity in vitro, resazurin growth inhibition: Microsporum canis (B68128)
Method in brief: as §2

[1] = tested on: Trichophyton mentagrophytes; test: Antifungal activity in vitro, resazurin growth inhibition: Trichophyton mentagrophytes (B70554)
Method in brief: as §2

Scedosporium apiospermum = test: Antifungal activity in vitro, resazurin growth inhibition: Scedosporium apiospermum (IHEM3817)
Method in brief: as §1

Cryptococcus neoformans = test: Antifungal activity in vitro, resazurin growth inhibition: Cryptococcus neoformans (B66663)
Method in brief: as §1

Row | Compound | Inf. E: Aspergillus fumigatus B42928, pIC50 (Aspergillus fumigatus) | Inf. K: Rhizomucor miehei IHEM13391, pIC50 (Rhizomucor miehei) | Inf. I: Scedosporium prolificans IHEM21157, pIC50 (Scedosporium prolificans) | Inf. C: Trichophyton rubrum B68183, pIC50 (Trichophyton rubrum) | Inf. A: Sporothrix schenkii B62482, pIC50 (Sporothrix schenkii) | Inf. J: Rhizopus oryzae IHEM5223, pIC50 (Rhizopus oryzae) | Inf. D: Candida parapsilosis B66126, pIC50 (Candida parapsilosis) | Inf. B: Microsporum canis B68128, pIC50 (Microsporum canis) | Inf. G: Trichophyton mentagrophytes B70554, pIC50 [1] | Inf. H: Scedosporium apiospermum IHEM3817, pIC50 (Scedosporium apiospermum) | Inf. F: Cryptococcus neoformans B66663, pIC50 (Cryptococcus neoformans)
1 | Cc1cccc2cc(C3=NCc4ccccc4-n4cccc43)oc12 [Compound 130] | 6.00 | 4.91 | 5.08 | 7.69 | 5.50 | 4.95 | 5.35 | 6.70 | 6.79 | 6.01 | 6.31
2 | Cc1ccc2cc(C3=NCc4ccccc4-n4cccc43)oc2c1 [Compound 137] | 6.00 | 4.50 | 6.21 | 7.18 | 5.52 | 4.48 | 4.74 | 6.81 | 6.89 | 5.16 | 5.10
3 | Cc1ccc2cc(C3=NCc4c(C)cccc4-n4cccc43)oc2c1 [Compound 140] | 5.05 | 4.68 | 6.36 | 7.50 | 6.23 | <4.19 | 4.34 | 6.44 | 6.11 | 5.35 | 4.60
4 | COc1cccc2cc(C3=NCc4c(C)cccc4-n4cccc43)oc12 [Compound 144] | 5.62 | 4.44 | 6.26 | >8.41 | 5.69 | <4.19 | 4.57 | 6.49 | 7.45 | 4.71 | 5.31
5 | Clc1cccc2c1CN=C(c1ccc3ccoc3c1)c1cccn1-2 [Compound 150] | 6.00 | <4.19 | 5.93 | 8.25 | 5.52 | <4.19 | 4.68 | 6.14 | 6.15 | <4.19 | 4.57
6 | Clc1cccc2c1CN=C(c1ccc3occ(Cl)c3c1)c1cccn1-2 [Compound 152] | 6.26 | <4.19 | 5.15 | 6.85 | 5.11 | <4.19 | 5.59 | 6.34 | 6.46 | 4.28 | 5.82
7 | Fc1cc(F)c2c(c1)-n1cccc1C(c1cc3cc(Cl)cnc3o1)=NC2 [Compound 158] | <4.19 | <4.19 | 6.00 | 5.72 | <4.19 | <4.19 | <4.19 | 5.70 | 5.17 | 4.37 | 5.20

Results, then the molecule that gave them:

Row | Inf. E: Aspergillus fumigatus B42928, pIC50 (Aspergillus fumigatus) | Inf. K: Rhizomucor miehei IHEM13391, pIC50 (Rhizomucor miehei) | Inf. I: Scedosporium prolificans IHEM21157, pIC50 (Scedosporium prolificans) | Inf. C: Trichophyton rubrum B68183, pIC50 (Trichophyton rubrum) | Inf. A: Sporothrix schenkii B62482, pIC50 (Sporothrix schenkii) | Inf. J: Rhizopus oryzae IHEM5223, pIC50 (Rhizopus oryzae) | Inf. D: Candida parapsilosis B66126, pIC50 (Candida parapsilosis) | Inf. B: Microsporum canis B68128, pIC50 (Microsporum canis) | Inf. G: Trichophyton mentagrophytes B70554, pIC50 [1] | Inf. H: Scedosporium apiospermum IHEM3817, pIC50 (Scedosporium apiospermum) | Inf. F: Cryptococcus neoformans B66663, pIC50 (Cryptococcus neoformans) | Compound
8 | 6.29 | <4.19 | 6.64 | 6.87 | <4.19 | <4.19 | <4.19 | 6.33 | 6.34 | 5.45 | 5.18 | Clc1cccc2c1CN=C(c1cc3cccc(Cl)c3o1)c1cccn1-2 [Compound 126]
9 | 6.31 | <4.19 | 6.64 | 6.94 | <4.19 | <4.19 | <4.19 | 6.44 | 6.40 | 4.80 | 5.22 | Fc1cccc2cc(C3=NCc4c(Cl)cccc4-n4cccc43)oc12 [Compound 127]
10 | 5.99 | <4.19 | 7.10 | 6.87 | <4.19 | <4.19 | <4.19 | 6.02 | 6.30 | <4.19 | 4.69 | Fc1cc(F)c2oc(C3=NCc4c(Cl)cccc4-n4cccc43)cc2c1 [Compound 128]
11 | 6.11 | 4.59 | 5.99 | 7.10 | 5.51 | <4.34 | 4.81 | 6.50 | 6.31 | 5.355 | 6.11 | Cc1cccc2c1CN=C(c1cc3cccc(C)c3o1)c1cccn1-2 [Compound 131]
12 | 5.66 | <4.19 | 6.48 | 7.16 | 4.50 | <4.19 | 4.54 | 6.68 | 6.66 | <4.19 | <4.19 | Cc1ccc2oc(C3=NCc4c(Cl)cccc4-n4cccc43)cc2c1 [Compound 134]
13 | <4.19 | <4.19 | 6.32 | 6.83 | <4.19 | <4.19 | <4.19 | 6.99 | 6.83 | 5.78 | <4.19 | Cc1ccc2cc(C3=NCc4c(Cl)cccc4-n4cccc43)oc2c1 [Compound 138]
14 | <4.19 | <4.19 | 5.05 | 6.86 | <4.19 | <4.19 | <4.19 | 6.88 | 7.64 | <4.19 | <4.19 | COc1cccc2cc(C3=NCc4c(Cl)cccc4-n4cccc43)oc12 [Compound 141]
15 | <4.19 | <4.19 | 4.80 | 6.19 | <4.19 | <4.19 | <4.19 | 5.76 | 5.44 | <4.19 | <4.19 | COc1ccc2oc(C3=NCc4c(Cl)cccc4-n4cccc43)cc2c1 [Compound 146]
16 | 5.47 | <4.19 | 5.79 | 6.10 | <4.19 | <4.19 | <4.19 | 5.35 | 5.61 | <4.19 | 4.81 | Fc1cccc2cc(C3=NCc4c(Cl)cc(Cl)cc4-n4cccc43)oc12 [Compound 149]
